The text below walks through data of patent publication US20240287037A1, “CYCLOALKYL COMPOUNDS AND PHARMACEUTICAL COMPOSITIONS THAT MODULATE IKZF2” (Plexium, Inc., priority 2021, published 2024).

Read-outs that look alike come from different tables or passages of the source.

Assay [1] has as its target human E3 ligase component cereblon (CRBN) (Homo sapiens (Human), UniProt Q96SW2). The experiment in a line: Cereblon (CRBN) target engagement, NanoBRET TE Intracellular E3 Ligase Assay in transfected HEK-293T cells. As to the method: HEK-293T cells were harvested ca. 75% confluent with trypsin and plated (500,000 cells/well) in a 6-well tissue culture plate in 2 mL of Dulbecco's Modified Eagle Medium (DMEM)^+10% Fetal Bovine Serum (FBS) and incubated overnight at 37° C.
The NanoLue-CRBN fusion vector (Nluc-CRBN; Promega) contains the coding region of human E3 ligase component cereblon (CRBN) fused to the C-terminus of the NanoLuc luciferase coding region. A mixture of 10 ng Nluc-CRBN and 990 ng DDB1 Expression Vector (Promega) was added to 125 μL Opti-Minimum Essential Medium (Opti-MEM™; Thermo Fisher) along with 2 μL P3000 reagent (Thermo Fisher) in a 1.5 mL epppendorf tube. This solution was added to Lipofectamine 3000 transfection reagent (5 μL; Thermo Fisher) in Opti-MEM (125 μL), mixed well, and incubated for 15 minutes at room temperature. The transfection mixture was added dropwise to cells and incubated overnight at 37° C., 5% CO2. Following transfection, cells were washed once with PBS, and trypsin (250 μL) was added and incubated 30-45 see to dislodge cells. Complete media (2 mL) was added to resuspend cells to form a single cell suspension. Cells were centrifuged at 320×g for 5 min at room temperature, the supernatant was removed, and the cell pellet resuspended in Opti-MEM (3 mL; wash step repeated ×2). After final resuspension in 5 mL Opti-MEM, cells were counted and resuspended at 200,000 cells/mL in Opti-MEM.
Cereblon target engagement was monitored by Bioluminescence Resonance Energy Transfer (BRET) in transfected HEK-293T cells using the NanoBRET TE Intracellular E3 Ligase Assay (Promega). Briefly, 384-well plates (white opaque plates, Corning 3574, low binding surface) were seeded with transfected HEK-293T cells (38 μl/well). 2 μL of 10 μM CRBN tracer (diluted 1:5 in Tracer Dilution Buffer) was added to each well. Plates were centrifuged at 320×g for 1 min at room temperature. […] Plates were shaken for 2 minutes on a microplate shaker to mix compounds. Plates were centrifuged at 320×g for 1 min at room temperature, and subsequently incubated for 2 hours at 37° C.
After incubation, plates were allowed to cool to room temperature for 15 minutes. 20 μL of 3X Complete NanoBRET™ Nano-Glo® Substrate plus Inhibitor Solution (Promega, 1:166 Substrate and 1:500 dilution of Extracellular NanoLuc® Inhibitor diluted in Opti-MEM) were added to each well, Plates were incubated with shaking at room temperature for 3 minutes covered with foil. Plates were read on a CLARIOstar microplate reader (BMG LabTech), measuring at 450 nm (donor emission) and 610 nm (acceptor emission). The IC50 values were determined by regression to best fit four-parameter logistic curves using GraphPad Prism.

For assay [2], the target named is IKZF2 (Helios) (Homo sapiens (Human), UniProt Q96SW2+Q9UKS7). Description: IKZF2 reporter degradation assay (HEK 293T IKZF2-mNeonGreen reporter cell line). The assay is classed as cell-based. The following applies: 24 hour incubation; for inhibition at 1 µM: HEK-293T, 24 h. An excerpt: (§1) Polycistronic plasmids were constructed for the mammalian expression of fluorescent reporter fusions of human transcription factors IKZF1 (Ikaros), IKZF2 (Helios), and IKZF3 (Aiolos). The respective protein sequences had their C-terminal end joined to a GGGGS linker repeated three times followed by mNeonGreen, P2A sequence, and mScarlet. The DNA sequences of the open reading frames are as follows:
(§2) IKZF1, IKZF2, and IKZF3 constructs were cloned into the UCOE Hygromycin expression vectors (Millipore Sigma). Reporter constructs were transfected using cationic lipid reagents into adherent HEK 293T cells and stable integrants were selected by treatment with 200 μg/mL hygromycin B. Clonal populations were obtained from the population of stable integrants either by limiting dilution or fluorescence activated cell sorting.
(§3) The clonal stable cell lines were maintained under constant 200 μg/mL hygromycin B selection while being passaged for use in the degradation assays. […] The fluorescence intensity of the IKZF1/2/3-mNeonGreen (FITC channel) and mScarlet (PE channel) reporters were routinely analyzed by flow cytometry to confirm consistent expression levels between experiments.
(§4) The IKZF1/IKZF2/IKZF3 degradation assays were carried out by harvesting the HEK 293T reporter cell lines and resuspending the cells in media formulated for reduced background fluorescence (FluoroBrite; Thermo Fisher). The respective cell lines were seeded at a density of 4000 cells/well into black-walled 384-well optical grade assay tissue culture plates. The cells were incubated overnight at 37° C. to allow for attachment to the assay plate. Dilutions of the compounds were prepared in DMSO from 10 mM compound stocks. The assay plates were treated with appropriate concentrations of the compounds by dispensing the DMSO dilutions in quadruplicate wells with an upper limit of 0.5% final DMSO.
(§5) After 24 hour incubation with the compounds, the assay plates were imaged on an ImageXpress Pico microscopy system (cells maintained at 37° C. during imaging) to obtain the fluorescent readouts. The assay plates were imaged in the FITC and Tetramethylrhodamine (TRITC) channels to obtain the mNeonGreen fluorescence intensity (reporter degradation data) and mScarlet fluorescence intensity (for cell segmentation). 293T-IKZF1 and 293T-IKZF3 reporter cell lines were imaged with exposures of 500 milliseconds (ms) for both FITC and TRITC channels, while the 293T-IKZF2 reporter cell line was imaged with exposures of 1000 ms for FITC and 1250 ms for TRITC. The resulting data was analyzed with Cell Reporter Xpress software using the 2-channel cell scoring analysis with a “percent positive” readout. The TRITC channel was selected for the “nuclei” segmentation with a threshold of 20 while the FITC channel was selected for the “Marker 1” segmentation and a threshold of 100 for the IKZF and IKZF3 reporter lines. […] The minimum segmentation width was set to 6 micrometers and the maximum segmentation width was set to 15 micrometers for all cell lines. The DC50 calculations were determined by regression to best fit four-parameter logistic curves using GraphPad Prism.

Assay [3] concerns the target IKZF1 (Ikaros) (Homo sapiens (Human), UniProt Q13422+Q96SW2). The experiment in a line: IKZF1 reporter degradation assay (HEK 293T IKZF1-mNeonGreen reporter cell line). The assay is classed as cell-based. The following applies: HEK 293T reporter cells, 24 hour incubation.
Source text: as §1, §2, §3, §4, §5

The target of assay [4] is IKZF3 (Aiolos) (Homo sapiens (Human), UniProt Q96SW2+Q9UKT9). Description: IKZF3 reporter degradation assay (HEK 293T IKZF3-mNeonGreen reporter cell line). Format: cell-based. The following applies: HEK 293T reporter cells, 24 hour incubation.
Source text: as §1, §2, §3, §4, §5

The target of assay [5] is GSPT1 (Homo sapiens (Human), UniProt P15170+Q96SW2). Description: GSPT1 reporter degradation assay (HEK293 hGSPT1 HiBiT-tagged cells). The following applies: 24 hour incubation. The assay is classed as cell-based. The method, then:
HEK293_hGSPT1_HiBiT-tagged cells were generated using CRISPR-Cas12a technology. Briefly, ˜400,000 HEK293 cells were transiently co-transfected with precomplexed ribonuclear proteins (RNPs) consisting of […] of crRNA (IDT), […] of Cas12a protein (IDT), 3 μg of ssODN donor (IDT; AltRTM modifications), 78 pmol of electroporation enhancer (IDT), and 200 ng of pMaxGFP (Lonza). The transfection was performed via nucleofection (Lonza, 4D-Nucleofector X-unit) using solution P3 and program CM-130 in a (20 μL) cuvette. Five days post-nucleofection, cells were single-cell-sorted for GFP+ (transfected) cells by FACs in 96-well plates and clonally selected. Clones were screened and verified for the desired modification via targeted deep sequencing using gene-specific primers with partial Illumina adapter overhangs as previously described. In brief, clonal cell pellets were harvested, lysed, and used to generate gene-specific amplicons with partial Illumina adapters in PCR #1. Amplicons were indexed in PCR #2 and pooled with other targeted amplicons for other loci to create sequence diversity. Additionally, 10% PhiX sequencing control V3 (Illumina) was added to the pooled amplicon library prior to running the sample on a Miseq Sequencer System (Illumina) to generate paired 2×250 bp reads. Samples were demultiplexed using the index sequences, fastq files were generated, and NGS analysis was performed using CRIS.py.
The GSTP1 degradation assay was carried out by harvesting the HEK 293T reporter cell lines and resuspending the cells in media formulated for reduced background fluorescence (FluoroBrite; Thermo Fisher). The respective cell lines were seeded at a density of 8,000 cells/well into white-opaque 384-well optical grade assay tissue culture plates (Greiner 781080-20). The cells were incubated overnight at 37° C. to allow for attachment to the assay plate. Dilutions of the compounds were prepared in DMSO from 10 mM compound stocks. […] Plates were centrifuged at 320×g for 2 minutes at room temperature, and subsequently incubated at 37° C.
After 24 hour incubation with the compounds, the plates were allowed to cool to room temperature for 10 minutes. 30 μL of HiBiT lytic buffer+1:50 HiBiT substrate Solution were added to each well. Plates were centrifuged at 320×g for 2 minutes at room temperature and then incubated with shaking at room temperature for 10 minutes covered with foil. Plates were read on a CLARIOstar microplate reader (BMG LabTech), measuring at 450 nm (donor emission) and 610 nm or 630 nm (acceptor emission). The DC50 values were determined by regression to best fit four-parameter logistic curves using GraphPad Prism.
On the technique in general: HiBiT is a short tag that completes a luciferase, so light tracks the accessible tagged protein.

Setting [6] is: Table 3, 2 hours at 37° C., read-out: CRBN Binding EC50.
Setting [7] is: second (untitled) table after Table 3, read-out: CRBN Binding EC50.
Setting [8] is: second (untitled) table after Table 3.
Setting [9] is: Table 3, HEK 293T reporter cells.

Usually EC50 stands for the midpoint of the concentration-response curve. For orientation: inhibition means how much of the control response was suppressed. A low value points to a response near the control. Broadly, the DC50 is the concentration at which degradation of the target reaches its halfway point.

Sequence of IKZF2 (Helios) (Q9UKS7 whole entry, the tested form may be a part): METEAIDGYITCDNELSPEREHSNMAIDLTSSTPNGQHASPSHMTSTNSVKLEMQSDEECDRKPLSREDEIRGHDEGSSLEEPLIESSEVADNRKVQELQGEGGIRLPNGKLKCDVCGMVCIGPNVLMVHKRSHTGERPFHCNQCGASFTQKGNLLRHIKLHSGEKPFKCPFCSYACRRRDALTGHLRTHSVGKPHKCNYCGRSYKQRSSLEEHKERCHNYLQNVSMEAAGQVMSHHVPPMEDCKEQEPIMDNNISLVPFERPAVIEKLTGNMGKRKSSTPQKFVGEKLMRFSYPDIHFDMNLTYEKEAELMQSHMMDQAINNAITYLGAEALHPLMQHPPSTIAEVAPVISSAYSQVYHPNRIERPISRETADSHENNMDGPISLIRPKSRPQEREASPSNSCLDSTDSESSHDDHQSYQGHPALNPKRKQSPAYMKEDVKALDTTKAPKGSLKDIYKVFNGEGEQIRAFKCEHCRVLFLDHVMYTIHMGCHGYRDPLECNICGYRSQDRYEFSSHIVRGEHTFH
Sequence of IKZF2 (Helios) (Q96SW2 whole entry, the tested form may be a part): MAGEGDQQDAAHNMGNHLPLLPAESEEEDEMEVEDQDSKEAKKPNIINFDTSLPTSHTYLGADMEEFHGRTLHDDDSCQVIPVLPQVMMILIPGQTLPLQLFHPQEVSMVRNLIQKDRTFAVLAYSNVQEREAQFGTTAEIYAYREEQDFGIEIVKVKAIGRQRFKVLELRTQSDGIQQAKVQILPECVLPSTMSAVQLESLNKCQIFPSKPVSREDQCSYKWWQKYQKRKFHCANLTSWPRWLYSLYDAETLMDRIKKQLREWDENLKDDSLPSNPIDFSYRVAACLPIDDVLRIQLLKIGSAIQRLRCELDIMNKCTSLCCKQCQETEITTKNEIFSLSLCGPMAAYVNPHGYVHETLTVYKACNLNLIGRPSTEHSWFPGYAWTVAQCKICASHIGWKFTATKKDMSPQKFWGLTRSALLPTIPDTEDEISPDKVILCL
Sequence of IKZF2 (Helios) (Q16531 whole entry partner, the tested form may be a part): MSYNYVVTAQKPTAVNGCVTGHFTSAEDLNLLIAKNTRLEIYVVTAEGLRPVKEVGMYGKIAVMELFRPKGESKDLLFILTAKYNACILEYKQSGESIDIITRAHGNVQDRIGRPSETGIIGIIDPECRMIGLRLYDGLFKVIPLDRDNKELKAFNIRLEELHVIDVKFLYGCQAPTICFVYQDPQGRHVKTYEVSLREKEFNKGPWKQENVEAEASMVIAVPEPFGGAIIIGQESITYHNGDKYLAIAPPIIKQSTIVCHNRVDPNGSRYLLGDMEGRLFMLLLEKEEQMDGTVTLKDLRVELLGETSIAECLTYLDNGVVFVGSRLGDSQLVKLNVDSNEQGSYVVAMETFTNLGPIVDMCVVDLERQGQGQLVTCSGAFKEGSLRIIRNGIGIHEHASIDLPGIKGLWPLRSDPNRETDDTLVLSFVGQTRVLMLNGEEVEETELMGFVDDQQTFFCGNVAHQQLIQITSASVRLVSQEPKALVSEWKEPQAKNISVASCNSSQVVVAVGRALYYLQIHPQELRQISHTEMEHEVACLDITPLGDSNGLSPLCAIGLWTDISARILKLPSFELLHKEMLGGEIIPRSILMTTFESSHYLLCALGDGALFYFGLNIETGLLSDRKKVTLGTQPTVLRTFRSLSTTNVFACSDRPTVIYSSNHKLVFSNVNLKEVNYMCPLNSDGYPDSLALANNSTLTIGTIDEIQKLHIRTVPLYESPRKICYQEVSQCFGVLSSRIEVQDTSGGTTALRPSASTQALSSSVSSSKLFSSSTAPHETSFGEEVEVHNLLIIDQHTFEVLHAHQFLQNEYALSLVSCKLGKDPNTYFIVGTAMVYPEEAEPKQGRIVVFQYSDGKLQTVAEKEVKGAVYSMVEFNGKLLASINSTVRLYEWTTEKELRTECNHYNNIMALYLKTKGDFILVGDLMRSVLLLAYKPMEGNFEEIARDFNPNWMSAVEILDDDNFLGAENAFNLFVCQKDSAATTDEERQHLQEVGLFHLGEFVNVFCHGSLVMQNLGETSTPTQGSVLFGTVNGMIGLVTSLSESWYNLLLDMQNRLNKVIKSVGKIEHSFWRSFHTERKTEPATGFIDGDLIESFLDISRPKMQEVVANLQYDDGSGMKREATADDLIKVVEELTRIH
Sequence of human E3 ligase component cereblon (CRBN) (Q96SW2 whole entry, the tested form may be a part): as the sequence (Q96SW2 whole entry, the tested form may be a part) above
Sequence of human E3 ligase component cereblon (CRBN) (Q16531 whole entry partner, the tested form may be a part): as the sequence (Q16531 whole entry partner, the tested form may be a part) above
Sequence of GSPT1 (P15170 whole entry): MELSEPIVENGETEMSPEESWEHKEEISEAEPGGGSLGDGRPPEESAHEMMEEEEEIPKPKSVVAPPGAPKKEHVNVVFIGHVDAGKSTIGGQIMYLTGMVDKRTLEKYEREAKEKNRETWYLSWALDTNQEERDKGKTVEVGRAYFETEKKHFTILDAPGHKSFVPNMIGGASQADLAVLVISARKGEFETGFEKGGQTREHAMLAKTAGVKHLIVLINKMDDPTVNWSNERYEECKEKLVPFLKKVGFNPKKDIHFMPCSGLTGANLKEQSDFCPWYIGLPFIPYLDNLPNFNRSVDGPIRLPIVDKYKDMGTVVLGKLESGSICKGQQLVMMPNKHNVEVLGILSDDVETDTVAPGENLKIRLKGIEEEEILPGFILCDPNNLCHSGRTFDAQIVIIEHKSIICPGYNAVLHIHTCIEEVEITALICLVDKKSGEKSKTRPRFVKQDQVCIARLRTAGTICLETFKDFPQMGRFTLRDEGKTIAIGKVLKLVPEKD
Sequence of GSPT1 (Q96SW2 whole entry): as the sequence (Q96SW2 whole entry, the tested form may be a part) above
Sequence of GSPT1 (Q16531 whole entry partner): as the sequence (Q16531 whole entry partner, the tested form may be a part) above
Sequence of IKZF1 (Ikaros) (Q13422 whole entry): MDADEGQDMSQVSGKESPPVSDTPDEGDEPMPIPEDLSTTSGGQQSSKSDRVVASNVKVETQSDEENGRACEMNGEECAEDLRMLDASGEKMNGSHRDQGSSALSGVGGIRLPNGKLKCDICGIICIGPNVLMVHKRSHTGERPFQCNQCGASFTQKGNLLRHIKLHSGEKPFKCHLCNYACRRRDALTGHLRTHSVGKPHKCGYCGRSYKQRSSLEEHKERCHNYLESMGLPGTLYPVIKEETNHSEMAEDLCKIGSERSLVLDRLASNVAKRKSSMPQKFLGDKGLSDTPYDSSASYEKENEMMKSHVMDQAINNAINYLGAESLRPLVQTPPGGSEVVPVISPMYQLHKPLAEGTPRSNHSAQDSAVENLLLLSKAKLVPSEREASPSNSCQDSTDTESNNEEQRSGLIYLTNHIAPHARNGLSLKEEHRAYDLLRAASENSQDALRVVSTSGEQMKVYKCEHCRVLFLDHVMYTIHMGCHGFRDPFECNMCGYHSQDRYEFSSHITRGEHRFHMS
Sequence of IKZF1 (Ikaros) (Q96SW2 whole entry): as the sequence (Q96SW2 whole entry, the tested form may be a part) above
Sequence of IKZF1 (Ikaros) (Q16531 whole entry partner): as the sequence (Q16531 whole entry partner, the tested form may be a part) above
Sequence of IKZF3 (Aiolos) (Q9UKT9 whole entry): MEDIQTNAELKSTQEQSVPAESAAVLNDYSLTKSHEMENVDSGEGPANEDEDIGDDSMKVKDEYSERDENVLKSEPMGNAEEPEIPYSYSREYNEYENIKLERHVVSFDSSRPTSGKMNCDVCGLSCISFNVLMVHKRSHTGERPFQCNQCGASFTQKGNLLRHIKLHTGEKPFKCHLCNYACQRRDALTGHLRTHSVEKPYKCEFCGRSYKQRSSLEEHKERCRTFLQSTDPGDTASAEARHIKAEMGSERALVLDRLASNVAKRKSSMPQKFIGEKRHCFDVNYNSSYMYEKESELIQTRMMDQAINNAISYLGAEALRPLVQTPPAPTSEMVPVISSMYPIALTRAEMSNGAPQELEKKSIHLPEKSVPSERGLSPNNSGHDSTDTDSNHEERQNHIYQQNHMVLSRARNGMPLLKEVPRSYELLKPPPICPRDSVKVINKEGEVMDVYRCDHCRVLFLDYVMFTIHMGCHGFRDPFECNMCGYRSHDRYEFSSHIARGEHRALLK
Sequence of IKZF3 (Aiolos) (Q96SW2 whole entry): as the sequence (Q96SW2 whole entry, the tested form may be a part) above
Sequence of IKZF3 (Aiolos) (Q16531 whole entry partner): as the sequence (Q16531 whole entry partner, the tested form may be a part) above

On to `O=C1NC(=O)C2(N3Cc4cc(O[C@H]5CCC[C@@H]5N5CC(C6CCC(F)(F)CC6)C5)ccc4C3=O)CC1C2` [Compound 14, 1-(5-(((1S,2S)-2-(3-(4,4-difluorocyclohexyl)azetidin-1-yl)cyclopentyl)oxy)-1-oxoisoindolin-2-yl)-3-azabicyclo[3.1.1]heptane-2,4-dione], for which the EC50 in assay [1] (setting [6]) and in assay [1] (setting [7]) was above 10 µM each time.

Regarding `COC1CCC(C2CN([C@H]3CCC[C@@H]3Oc3ccc4c(c3)CN(C35CC(C3)C(=O)NC5=O)C4=O)C2)CC1` (stereo partly drawn) [Compound 12, 1-(5-(((1S,2S)-2-(3-((cis)-4-methoxycyclohexyl)azetidin-1-yl)cyclopentyl)oxy)-1-oxoisoindolin-2-yl)-3-azabicyclo[3.1.1]heptane-2,4-dione], the EC50 in assay [1] (setting [6]) and in assay [1] (setting [7]) was above 10 µM throughout.

Consider `COC1CCC(C2CN([C@H]3CCCC[C@@H]3Oc3ccc4c(c3)CN(C3CCC(=O)NC3=O)C4=O)C2)CC1` (stereo partly drawn) [Compound 8, 3-(5-(((1S,2S)-2-(3-((trans)-4-methoxycyclohexyl)azetidin-1-yl)cyclohexyl)oxy)-1-oxoisoindolin-2-yl)piperidine-2,6-dione], for which at 1 µM the inhibition in assay [2] (setting [8]) was 80.1%. Besides, the “IKZF2% Degradation @ 1 μM” value in assay [2] (setting [9]) was found to be 80.1%.

`COC1CCC(C2CN([C@H]3CCCC[C@@H]3Oc3ccc4c(c3)CN(C3CCC(=O)NC3=O)C4=O)C2)CC1` (stereo partly drawn) [Compound 7, 3-(5-(((1S,2S)-2-(3-((cis)-4-methoxycyclohexyl)azetidin-1-yl)cyclohexyl)oxy)-1-oxoisoindolin-2-yl)piperidine-2,6-dione] showed an inhibition at 1 µM in assay [2] (setting [9]) of 80.1%. Also, in assay [2] (setting [8]), the “IKZF2% Degradation @ 1 μM” value stood at 80.1%.

Take `O=C1NC(=O)C2(N3Cc4cc(O[C@H]5CCCC[C@@H]5N5CC(C6CCC(F)(F)CC6)C5)ccc4C3=O)CC1C2` [Compound 15, 1-(5-(((1S,2S)-2-(3-(4,4-difluorocyclohexyl)azetidin-1-yl)cyclohexyl)oxy)-1-oxoisoindolin-2-yl)-3-azabicyclo[3.1.1]heptane-2,4-dione]: the EC50 in assay [1] (setting [6]) and in assay [1] (setting [7]) was 6.21 µM throughout.

Consider `COC1CCC(C2CN([C@H]3CCC[C@@H]3Oc3ccc4c(c3)CN(C3CCC(=O)NC3=O)C4=O)C2)CC1` (stereo partly drawn) [Compound 9, 3-(5-(((1S,2S)-2-(3-((cis)-4-methoxycyclohexyl)azetidin-1-yl)cyclopentyl)oxy)-1-oxoisoindolin-2-yl)piperidine-2,6-dione], for which the inhibition at 1 µM in assay [2] (setting [9]) and in assay [2] (setting [8]) was 77.7% in each case.

As to `N#CC1(C2CN([C@H]3CCCC[C@@H]3Oc3ccc4c(c3)CN(C3CCC(=O)NC3=O)C4=O)C2)CCC1` (stereo partly drawn) [Compound 23, 1-(1-((1S,2S)-2-((2-(2,6-dioxopiperidin-3-yl)-1-oxoisoindolin-5-yl)oxy)cyclohexyl)azetidin-3-yl)cyclobutane-1-carbonitrile], the DC50 was above 30 µM in assay [3], above 30 µM in assay [4], 0.003 µM in assay [2] (HEK 293T reporter cells) and above 30 µM in assay [5]. Moreover, the inhibition at 1 µM in assay [2] (setting [9]) and in assay [2] (setting [8]) was 87.4% throughout.

Take `COC1CCC(C2CN([C@H]3CCC[C@@H]3Oc3ccc4c(c3)CN(C3CCC(=O)NC3=O)C4=O)C2)CC1` (stereo partly drawn) [Compound 10, 3-(5-(((1S,2S)-2-(3-((trans)-4-methoxycyclohexyl)azetidin-1-yl)cyclopentyl)oxy)-1-oxoisoindolin-2-yl)piperidine-2,6-dione]: the “IKZF2% Degradation @ 1 μM” value in assay [2] (setting [9]) and in assay [2] (setting [8]) was 80.8% each time.

As to `COC1CCC(C2CN([C@H]3CCCC[C@@H]3Oc3ccc4c(c3)CN(C35CC(C3)C(=O)NC5=O)C4=O)C2)CC1` (stereo partly drawn) [Compound 11, 1-(5-(((1S,2S)-2-(3-((cis)-4-methoxycyclohexyl)azetidin-1-yl)cyclohexyl)oxy)-1-oxoisoindolin-2-yl)-3-azabicyclo[3.1.1]heptane-2,4-dione], the EC50 in assay [1] (setting [6]) and in assay [1] (setting [7]) was above 10 µM each time.
